In ChEMBL document CHEMBL3045266, “Lytic activity of l-menthol derivatives against the snow blight disease fungus, Micronectriella nivalis” (2003) one finds Activity data, which are given here for eight compounds.

Calls of active or inactive are those of the source. The calls are words filed in the database; no cut-off is given here.

Assay [1] relates to Monographella nivalis var. nivalis. Nature of the assay: Lytic activity against Monographella nivalis var. nivalis MAFF 305031 assessed as hyphal lysis at 0.05 mg/ml after 48 hr by cotton blue staining. The format is functional.
The test system is the same in assay [2]. In words: Lytic activity against Monographella nivalis var. nivalis MAFF 305031 assessed as hyphal lysis at 0.2 mg/ml after 48 hr by cotton blue staining. The format is functional.
The test system is the same in assay [3]. Nature of the assay: Lytic activity against Monographella nivalis var. nivalis MAFF 305031 assessed as hyphal lysis after 48 hr by cotton blue staining. In kind it is functional, organism-based.
Assay [4] has the same test system. Nature of the assay: Lytic activity against Monographella nivalis var. nivalis MAFF 305031 assessed as hyphal lysis at 0.025 to 0.2 mg/ml after 48 hr by cotton blue staining. In kind it is functional, organism-based.

As to `CC(C)[C@@H]1C[C@H](O)[C@@H](C)C[C@H]1O` [(-)-(1S,3R,4S,6S)-6-HYDROXYMENTHOL], the Activity in assay [1] is 57.1%; in assay [2], 85%; in assay [3] it was “Dose-dependent effect”.
Regarding `CC(=O)O[C@@H]1C[C@@](C)(O)CC[C@H]1C(C)C` [(-)-(1S,3R,4S)-1-HYDROXYMENTHYL 3-MONOACETATE], the outcome in assay [4] was Active. Also, in assay [2], the Activity was 66%.
The matching figures for `CC(=O)O[C@H]1C[C@@H](C(C)(C)O)[C@H](OC(C)=O)C[C@@H]1C`: “Active” and 95.2%.
Consider `CC(C)[C@@H]1CC[C@@H](C)C[C@H]1O` [LEVOMENTHOL], for which the Activity in assay [2] is 45.7%.
As for `CC(=O)O[C@@H]1C[C@H](C)CC[C@H]1C(C)C`, the outcome in assay [4] was Active. Besides, the Activity in assay [2] is on record as 51.2%.
Turning to `CC(C)[C@@H]1CC[C@](C)(O)C[C@H]1O` [(-)-(1S,3R,4S)-1-HYDROXYMENTHOL], the Activity in assay [2] is 63.9%; in assay [3], “Dose-dependent effect”.
Take `CC(=O)O[C@H]1C[C@@H](C(C)C)[C@H](OC(C)=O)C[C@@H]1C`: the outcome in assay [4] was Active. For the same compound, the Activity in assay [2] amounted to 91.5%.
Regarding `C[C@H]1C[C@@H](O)[C@H](C(C)(C)O)C[C@@H]1O`, the Activity in assay [1] was 68.1%; in assay [2], 81.9%; in assay [3], “Dose-dependent effect”.
